pEC50, pIC50: −log10 of the molar value.
test system: not listed separately; test: Inhibition of BET in human THP-1 cells assessed as suppression of LPS-induced IL-6 release measured after 16 hrs by chemiluminescence ELISA; type: cell-based; conditions: THP-1, 16 h

| SMILES | pEC50 |
| --- | --- |
| Cc1nnc2n1-c1ccccc1N(c1ccc(Cl)cc1)CC2 | 5.64 |
| Cc1noc2c1-c1ccccc1N(c1ccc(C#N)cc1)CC2 | 5.34 |
| Cc1nnc2n1-c1ccc(S(C)(=O)=O)cc1N(c1ccc(Cl)cc1)C[C@H]2C | 6.17 |
| Cc1nnc2n1-c1ccccc1N(c1ccc(Cl)cc1)C(C)C2 (stereo not given) | 5.51 |

Now from value to compound:

| pEC50 | SMILES |
| --- | --- |
| 6.09 | Cc1noc2c1-c1ccc(-c3cnn(C)c3)cc1N(c1ccc(C#N)cc1)CC2CC(N)=O (stereo not given) |
| 7.02 | Cc1nnc2n1-c1ccc(C(N)=O)cc1N(c1ccc(Cl)cc1)C[C@H]2C |
| 6.42 | Cc1noc2c1-c1ccc(-c3ccc(N)nc3)cc1N(c1ccc(C#N)cc1)CC2 |
| 7.17 | Cc1noc2c1-c1ccc(-c3cnn(CC(N)=O)c3)cc1N(c1ccc(C#N)cc1)CC2C (stereo not given) |
| 7.80 | Cc1nnc2n1-c1ccc(-c3ccc(N)nc3)cc1N(c1ccc(Cl)cc1)CC2C (stereo not given) |

test system: not listed separately; test: Intrinsic clearance in mouse liver microsomes; conditions: not given

| SMILES | microsomal CLint |
| --- | --- |
| Cc1nnc2n1-c1ccccc1N(c1ccc(Cl)cc1)CC2 | 500 µL/min/mg |
| Cc1noc2c1-c1ccccc1N(c1ccc(C#N)cc1)CC2 | 22 µL/min/mg |

Second part, the compound after the results:

| microsomal CLint | SMILES |
| --- | --- |
| 37 µL/min/mg | Cc1noc2c1-c1ccc(-c3cnn(C)c3)cc1N(c1ccc(C#N)cc1)CC2CC(N)=O (stereo not given) |
| 101 µL/min/mg | Cc1noc2c1-c1ccc(-c3ccc(N)nc3)cc1N(c1ccc(C#N)cc1)CC2 |
| 44 µL/min/mg | Cc1noc2c1-c1ccc(-c3cnn(CC(N)=O)c3)cc1N(c1ccc(C#N)cc1)CC2C (stereo not given) |

test system: not listed separately; test: Intrinsic clearance in rat liver microsomes; conditions: not given

| SMILES | microsomal CLint |
| --- | --- |
| Cc1nnc2n1-c1ccccc1N(c1ccc(Cl)cc1)CC2 | 126 µL/min/mg |
| Cc1noc2c1-c1ccccc1N(c1ccc(C#N)cc1)CC2 | 24 µL/min/mg |
| Cc1nnc2n1-c1ccccc1N(c1ccc(Cl)cc1)C(C)C2 (stereo not given) | 65 µL/min/mg |

The next lines start with the values.

| microsomal CLint | SMILES |
| --- | --- |
| 22 µL/min/mg | Cc1noc2c1-c1ccc(-c3cnn(C)c3)cc1N(c1ccc(C#N)cc1)CC2CC(N)=O (stereo not given) |
| 195 µL/min/mg | Cc1noc2c1-c1ccc(-c3ccc(N)nc3)cc1N(c1ccc(C#N)cc1)CC2 |
| 62 µL/min/mg | Cc1noc2c1-c1ccc(-c3cnn(CC(N)=O)c3)cc1N(c1ccc(C#N)cc1)CC2C (stereo not given) |
| 34 µL/min/mg | Cc1nnc2n1-c1ccc(-c3ccc(N)nc3)cc1N(c1ccc(Cl)cc1)CC2C (stereo not given) |

test system: not listed separately; test: Intrinsic clearance in dog liver microsomes; conditions: not given

| SMILES | microsomal CLint |
| --- | --- |
| Cc1nnc2n1-c1ccccc1N(c1ccc(Cl)cc1)CC2 | 390 µL/min/mg |
| Cc1noc2c1-c1ccccc1N(c1ccc(C#N)cc1)CC2 | 18 µL/min/mg |

The next lines start with the values.

| microsomal CLint | SMILES |
| --- | --- |
| 69 µL/min/mg | Cc1noc2c1-c1ccc(-c3cnn(C)c3)cc1N(c1ccc(C#N)cc1)CC2CC(N)=O (stereo not given) |
| 165 µL/min/mg | Cc1noc2c1-c1ccc(-c3ccc(N)nc3)cc1N(c1ccc(C#N)cc1)CC2 |
| 22 µL/min/mg | Cc1noc2c1-c1ccc(-c3cnn(CC(N)=O)c3)cc1N(c1ccc(C#N)cc1)CC2C (stereo not given) |
| 94 µL/min/mg | Cc1nnc2n1-c1ccc(-c3ccc(N)nc3)cc1N(c1ccc(Cl)cc1)CC2C (stereo not given) |

test system: not listed separately; test: Intrinsic clearance in human liver microsomes; conditions: not given

| SMILES | microsomal CLint |
| --- | --- |
| Cc1nnc2n1-c1ccccc1N(c1ccc(Cl)cc1)CC2 | 154 µL/min/mg |
| Cc1noc2c1-c1ccccc1N(c1ccc(C#N)cc1)CC2 | 17 µL/min/mg |
| Cc1nnc2n1-c1ccccc1N(c1ccc(Cl)cc1)C(C)C2 (stereo not given) | 25 µL/min/mg |

Continued, values first:

| microsomal CLint | SMILES |
| --- | --- |
| 27 µL/min/mg | Cc1noc2c1-c1ccc(-c3cnn(C)c3)cc1N(c1ccc(C#N)cc1)CC2CC(N)=O (stereo not given) |
| 86 µL/min/mg | Cc1noc2c1-c1ccc(-c3ccc(N)nc3)cc1N(c1ccc(C#N)cc1)CC2 |
| 33 µL/min/mg | Cc1noc2c1-c1ccc(-c3cnn(CC(N)=O)c3)cc1N(c1ccc(C#N)cc1)CC2C (stereo not given) |
| 6.4 µL/min/mg | Cc1nnc2n1-c1ccc(-c3ccc(N)nc3)cc1N(c1ccc(Cl)cc1)CC2C (stereo not given) |

test system: not listed separately; test: Protein binding in mouse plasma; conditions: not given

| SMILES | fraction unbound |
| --- | --- |
| Cc1nnc2n1-c1ccccc1N(c1ccc(Cl)cc1)CC2 | 0.07 |
| Cc1noc2c1-c1ccccc1N(c1ccc(C#N)cc1)CC2 | < 0.01 |

Now from value to compound:

| fraction unbound | SMILES |
| --- | --- |
| 0.04 | Cc1noc2c1-c1ccc(-c3cnn(C)c3)cc1N(c1ccc(C#N)cc1)CC2CC(N)=O (stereo not given) |
| < 0.01 | Cc1noc2c1-c1ccc(-c3ccc(N)nc3)cc1N(c1ccc(C#N)cc1)CC2 |
| 0.04 | Cc1noc2c1-c1ccc(-c3cnn(CC(N)=O)c3)cc1N(c1ccc(C#N)cc1)CC2C (stereo not given) |
| 0.02 | Cc1nnc2n1-c1ccc(-c3ccc(N)nc3)cc1N(c1ccc(Cl)cc1)CC2C (stereo not given) |

test system: not listed separately; test: Protein binding in rat plasma; type: ADME, cell-free; conditions: read-out: PPB (converted)

| SMILES | fraction unbound |
| --- | --- |
| Cc1nnc2n1-c1ccccc1N(c1ccc(Cl)cc1)CC2 | 0.05 |
| Cc1noc2c1-c1ccccc1N(c1ccc(C#N)cc1)CC2 | < 0.01 |
| Cc1nnc2n1-c1ccccc1N(c1ccc(Cl)cc1)C(C)C2 (stereo not given) | 0.03 |

Further lines, results first:

| fraction unbound | SMILES |
| --- | --- |
| 0.06 | Cc1noc2c1-c1ccc(-c3cnn(C)c3)cc1N(c1ccc(C#N)cc1)CC2CC(N)=O (stereo not given) |
| 0.01 | Cc1noc2c1-c1ccc(-c3ccc(N)nc3)cc1N(c1ccc(C#N)cc1)CC2 |
| 0.03 | Cc1noc2c1-c1ccc(-c3cnn(CC(N)=O)c3)cc1N(c1ccc(C#N)cc1)CC2C (stereo not given) |
| 0.03 | Cc1nnc2n1-c1ccc(-c3ccc(N)nc3)cc1N(c1ccc(Cl)cc1)CC2C (stereo not given) |

test system: not listed separately; test: Protein binding in dog plasma; conditions: not given

| SMILES | fraction unbound |
| --- | --- |
| Cc1nnc2n1-c1ccccc1N(c1ccc(Cl)cc1)CC2 | 0.05 |
| Cc1noc2c1-c1ccccc1N(c1ccc(C#N)cc1)CC2 | < 0.01 |

Next, values leading:

| fraction unbound | SMILES |
| --- | --- |
| 0.02 | Cc1noc2c1-c1ccc(-c3cnn(C)c3)cc1N(c1ccc(C#N)cc1)CC2CC(N)=O (stereo not given) |
| < 0.01 | Cc1noc2c1-c1ccc(-c3ccc(N)nc3)cc1N(c1ccc(C#N)cc1)CC2 |
| 0.01 | Cc1noc2c1-c1ccc(-c3cnn(CC(N)=O)c3)cc1N(c1ccc(C#N)cc1)CC2C (stereo not given) |
| 0.03 | Cc1nnc2n1-c1ccc(-c3ccc(N)nc3)cc1N(c1ccc(Cl)cc1)CC2C (stereo not given) |

test system: not listed separately; test: Protein binding in human plasma; type: ADME, cell-free; conditions: read-out: PPB (converted)

| SMILES | fraction unbound |
| --- | --- |
| Cc1nnc2n1-c1ccccc1N(c1ccc(Cl)cc1)CC2 | 0.05 |
| Cc1noc2c1-c1ccccc1N(c1ccc(C#N)cc1)CC2 | < 0.01 |
| Cc1nnc2n1-c1ccccc1N(c1ccc(Cl)cc1)C(C)C2 (stereo not given) | 0.02 |

Second part, the compound after the results:

| fraction unbound | SMILES |
| --- | --- |
| 0.01 | Cc1noc2c1-c1ccc(-c3cnn(C)c3)cc1N(c1ccc(C#N)cc1)CC2CC(N)=O (stereo not given) |
| < 0.01 | Cc1noc2c1-c1ccc(-c3ccc(N)nc3)cc1N(c1ccc(C#N)cc1)CC2 |
| 0.01 | Cc1noc2c1-c1ccc(-c3cnn(CC(N)=O)c3)cc1N(c1ccc(C#N)cc1)CC2C (stereo not given) |
| 0.02 | Cc1nnc2n1-c1ccc(-c3ccc(N)nc3)cc1N(c1ccc(Cl)cc1)CC2C (stereo not given) |

molecular target: Bromodomain-containing protein 4 (Homo sapiens, UniProt O60885); conditions: not given

| SMILES | pIC50 |
| --- | --- |
| Cc1nnc2n1-c1ccccc1NCC2 | 4.21 |
| Cc1nnc2n1-c1ccccc1N(c1ccc(Cl)cc1)CC2 | 5.81 |
| Cc1noc2c1-c1ccccc1N(c1ccc(C#N)cc1)CC2 | 6.26 |
| Cc1nnc2n1-c1ccc(S(C)(=O)=O)cc1N(c1ccc(Cl)cc1)C[C@H]2C | 5.92 |
| Cc1nnc2n1-c1ccccc1N(c1ccc(Cl)cc1)C(C)C2 (stereo not given) | 5.92 |

These reach a higher pIC50. Values come first.

| pIC50 | SMILES |
| --- | --- |
| 6.51 | Cc1noc2c1-c1ccc(-c3cnn(C)c3)cc1N(c1ccc(C#N)cc1)CC2CC(N)=O (stereo not given) |
| 7.19 | Cc1nnc2n1-c1ccc(C(N)=O)cc1N(c1ccc(Cl)cc1)C[C@H]2C |
| 7.19 | Cc1noc2c1-c1ccc(-c3ccc(N)nc3)cc1N(c1ccc(C#N)cc1)CC2 |
| 7.51 | Cc1noc2c1-c1ccc(-c3cnn(CC(N)=O)c3)cc1N(c1ccc(C#N)cc1)CC2C (stereo not given) |
| 7.59 | Cc1nnc2n1-c1ccc(-c3ccc(N)nc3)cc1N(c1ccc(Cl)cc1)CC2C (stereo not given) |

— ChEMBL document CHEMBL4715706, “Discovery of Benzotriazolo[4,3-d][1,4]diazepines as Orally Active Inhibitors of BET Bromodomains” (ACS Med Chem Lett, 2016)
